Laboratory results reported in ChEMBL document CHEMBL1201862, “PubChem BioAssay data set” (2004).
Activity calls are given as the source filed them.

Key:
[1] = biological target: T1, Dual specificity protein phosphatase 3 (Homo sapiens, UniProt P51452); assay: VHR1 phosphatase inhibitors, primary screen, biochemical, absorbance, uHTS (AID 1654)
[2] = biological target: T1, Dual specificity protein phosphatase 3; assay: VHR1 phosphatase inhibitors, biochemical (AID 1878)
Protein RecA [3] = biological target: T2, Protein RecA (Mycobacterium tuberculosis, UniProt P9WHJ3); assay: GFP-RecA MOA-DTT Measured in Biochemical System Using Plate Reader - 2047-05_Inhibitor_Dose_DryPowder_Activity. [Related pubchem assays (depositor defined):AID2223]; design: species or system Mycobacterium tuberculosis H37Rv
T2 sequence (P9WHJ3 whole entry): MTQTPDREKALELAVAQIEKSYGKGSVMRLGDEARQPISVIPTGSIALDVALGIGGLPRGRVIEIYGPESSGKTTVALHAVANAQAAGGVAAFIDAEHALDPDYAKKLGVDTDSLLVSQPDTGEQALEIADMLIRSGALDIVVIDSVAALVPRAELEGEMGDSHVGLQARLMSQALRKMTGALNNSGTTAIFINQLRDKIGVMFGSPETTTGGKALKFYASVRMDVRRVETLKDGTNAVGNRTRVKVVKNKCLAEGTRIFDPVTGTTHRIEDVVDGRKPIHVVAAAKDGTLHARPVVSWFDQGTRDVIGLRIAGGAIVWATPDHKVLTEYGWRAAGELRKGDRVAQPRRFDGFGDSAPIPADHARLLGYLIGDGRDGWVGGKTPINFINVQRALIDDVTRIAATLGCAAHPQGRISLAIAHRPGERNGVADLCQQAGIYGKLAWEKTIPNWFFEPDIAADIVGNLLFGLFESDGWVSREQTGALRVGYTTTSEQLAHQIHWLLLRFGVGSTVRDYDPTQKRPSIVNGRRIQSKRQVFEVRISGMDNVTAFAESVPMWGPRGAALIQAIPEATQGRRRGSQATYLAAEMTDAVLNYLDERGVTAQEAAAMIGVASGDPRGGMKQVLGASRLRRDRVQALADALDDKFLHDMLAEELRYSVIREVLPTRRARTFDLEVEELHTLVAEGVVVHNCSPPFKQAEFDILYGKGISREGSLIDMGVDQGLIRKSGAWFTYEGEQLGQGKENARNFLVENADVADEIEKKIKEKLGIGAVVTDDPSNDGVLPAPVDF

[4] = biological target: T3, Replicative DNA helicase DnaB (Mycobacterium tuberculosis, UniProt P9WMR3); assay: DnaB Intein secondary assay Measured in Biochemical System Using Plate Reader - 2047-04_Inhibitor_Dose_DryPowder_Activity. [Related pubchem assays (depositor defined):AID2223]
T3 sequence (P9WMR3 whole entry): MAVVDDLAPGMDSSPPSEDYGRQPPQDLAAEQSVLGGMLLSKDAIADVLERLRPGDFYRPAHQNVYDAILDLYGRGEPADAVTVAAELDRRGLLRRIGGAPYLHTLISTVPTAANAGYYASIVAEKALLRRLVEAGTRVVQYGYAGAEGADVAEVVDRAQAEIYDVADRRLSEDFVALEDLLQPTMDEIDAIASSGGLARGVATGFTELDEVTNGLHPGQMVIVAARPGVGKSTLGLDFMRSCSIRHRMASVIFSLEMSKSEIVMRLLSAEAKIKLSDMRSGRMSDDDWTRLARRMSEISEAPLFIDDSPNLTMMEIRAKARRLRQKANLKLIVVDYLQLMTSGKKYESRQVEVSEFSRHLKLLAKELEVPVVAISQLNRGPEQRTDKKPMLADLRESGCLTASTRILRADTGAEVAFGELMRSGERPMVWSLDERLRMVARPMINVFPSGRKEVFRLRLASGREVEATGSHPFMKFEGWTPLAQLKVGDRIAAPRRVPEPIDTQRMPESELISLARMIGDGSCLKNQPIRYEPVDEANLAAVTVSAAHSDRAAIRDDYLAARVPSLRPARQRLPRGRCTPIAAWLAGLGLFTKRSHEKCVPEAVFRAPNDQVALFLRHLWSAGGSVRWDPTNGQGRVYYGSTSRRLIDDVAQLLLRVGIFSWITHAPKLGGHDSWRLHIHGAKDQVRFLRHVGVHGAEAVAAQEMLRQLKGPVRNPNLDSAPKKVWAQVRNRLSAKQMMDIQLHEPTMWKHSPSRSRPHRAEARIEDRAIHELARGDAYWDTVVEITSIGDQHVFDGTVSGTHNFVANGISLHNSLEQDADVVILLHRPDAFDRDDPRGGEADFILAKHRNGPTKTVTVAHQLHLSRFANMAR

[5] = biological target: Protein-arginine deiminase type-4 (Homo sapiens, UniProt Q9UM07); assay: IC50 against protein arginine deiminase 4 – biochemical, fluorescence readout, dose response (AID 492970)
Protein-arginine deiminase type-4, sequence (Q9UM07 whole entry): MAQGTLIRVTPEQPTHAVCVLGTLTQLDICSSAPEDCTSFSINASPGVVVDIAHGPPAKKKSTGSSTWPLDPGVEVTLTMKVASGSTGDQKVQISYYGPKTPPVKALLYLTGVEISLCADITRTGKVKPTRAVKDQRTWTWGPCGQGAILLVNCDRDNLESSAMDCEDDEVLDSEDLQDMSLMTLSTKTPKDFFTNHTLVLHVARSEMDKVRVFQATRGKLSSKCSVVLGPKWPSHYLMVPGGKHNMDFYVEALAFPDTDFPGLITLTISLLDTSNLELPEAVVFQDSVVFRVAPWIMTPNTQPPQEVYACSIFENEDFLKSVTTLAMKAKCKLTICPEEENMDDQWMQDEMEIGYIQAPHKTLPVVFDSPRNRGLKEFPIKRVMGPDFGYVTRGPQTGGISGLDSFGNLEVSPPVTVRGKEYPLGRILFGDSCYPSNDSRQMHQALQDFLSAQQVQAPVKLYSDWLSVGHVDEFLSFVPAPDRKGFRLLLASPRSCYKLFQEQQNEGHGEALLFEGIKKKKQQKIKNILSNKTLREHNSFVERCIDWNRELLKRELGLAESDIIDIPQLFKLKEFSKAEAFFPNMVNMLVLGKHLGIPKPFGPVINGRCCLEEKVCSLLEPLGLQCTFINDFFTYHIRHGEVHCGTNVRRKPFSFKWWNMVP

Protein RecA [6] = biological target: T2, Protein RecA; assay: RecA Intein Measured in Biochemical System Using Plate Reader - 2047-02_Inhibitor_Dose_DryPowder_Activity. [Related pubchem assays (depositor defined):AID2223]; design: species or system Mycobacterium tuberculosis H37Rv
[7] = biological target: Dual specificity tyrosine-phosphorylation-regulated kinase 1A (Rattus norvegicus, UniProt Q63470); type: biochemical, Homo sapiens
[8] = cytotoxicity toward MDA-MB-231 breast cancer cells – cell-based, CellTiter-Glo luminescence, cherry-pick, cytotoxicity control for RAD54 inhibitor project, dose response (AID 651692); type: functional
[9] = reduced cellular PGC1a acetyl-lysine signal – cell-based, cherry-picked samples, dose response (AID 720514); type: functional;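 further: potency may reflect raised or lowered acetylation signal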
[10] = biological target: Protein disulfide-isomerase A6 (Homo sapiens, UniProt Q15084); assay: reduced insulin turbidity driven by ERp5 (PDIA6) – biochemical, absorbance 650 nm, cherry-picked samples, dose response (AID 720566)
Protein disulfide-isomerase A6, sequence (Q15084 whole entry): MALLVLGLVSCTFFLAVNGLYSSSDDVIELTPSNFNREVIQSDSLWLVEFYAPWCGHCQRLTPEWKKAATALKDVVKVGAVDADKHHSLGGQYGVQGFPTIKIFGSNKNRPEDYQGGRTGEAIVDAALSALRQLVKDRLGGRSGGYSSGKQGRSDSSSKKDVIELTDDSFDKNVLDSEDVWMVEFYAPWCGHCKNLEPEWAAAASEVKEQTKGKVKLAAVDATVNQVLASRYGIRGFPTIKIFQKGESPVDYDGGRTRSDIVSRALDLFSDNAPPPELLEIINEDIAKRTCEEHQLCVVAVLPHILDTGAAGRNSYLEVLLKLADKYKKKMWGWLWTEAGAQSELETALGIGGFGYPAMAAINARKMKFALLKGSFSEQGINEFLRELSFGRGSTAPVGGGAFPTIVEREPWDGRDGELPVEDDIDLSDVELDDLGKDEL

[11] = toxicity toward HepG2 liver cells – cell-based, plate reader, cherry-pick, antagonist series, cytotoxicity control, dose response (AID 743416); type: functional
BJ [12] = assay: BJ-TERT fibroblast viability loss – cell-based, RAS-independent, luminescence, dose response (AID 1933); type: functional; details: Homo sapiens
BJ [13] = assay: cells; type: functional, cell-based; details: Homo sapiens
[14] = viability loss in CEM21 cells – cell-based, CellTiter-Glo luminescence, cherry-picked, cytotoxicity control for viral fusion inhibitor project, dose response (AID 652042); type: functional;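 further: potency for signal decrease meaning cytotoxicity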
[15] = general mammalian cell viability loss – inhibitor set, cherry-pick, set 2, cytotoxicity control for miR-122 modulator project, dose response (AID 720697); type: functional, cell-based
ORF 73 = ORF 73 (Human herpesvirus 8, UniProt O40947); assay: KSHV LANA DNA-binding disruption – biochemical, fluorescence polarization, cherry-picked samples, dose response (AID 504725); design: species or system Human gammaherpesvirus 8;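 further: fluorescence polarization of a labeled DNA duplex reporting LANA DNA binding; potency is for inhibitors that block LANA binding to the DNA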
ORF 73, sequence (O40947 whole entry): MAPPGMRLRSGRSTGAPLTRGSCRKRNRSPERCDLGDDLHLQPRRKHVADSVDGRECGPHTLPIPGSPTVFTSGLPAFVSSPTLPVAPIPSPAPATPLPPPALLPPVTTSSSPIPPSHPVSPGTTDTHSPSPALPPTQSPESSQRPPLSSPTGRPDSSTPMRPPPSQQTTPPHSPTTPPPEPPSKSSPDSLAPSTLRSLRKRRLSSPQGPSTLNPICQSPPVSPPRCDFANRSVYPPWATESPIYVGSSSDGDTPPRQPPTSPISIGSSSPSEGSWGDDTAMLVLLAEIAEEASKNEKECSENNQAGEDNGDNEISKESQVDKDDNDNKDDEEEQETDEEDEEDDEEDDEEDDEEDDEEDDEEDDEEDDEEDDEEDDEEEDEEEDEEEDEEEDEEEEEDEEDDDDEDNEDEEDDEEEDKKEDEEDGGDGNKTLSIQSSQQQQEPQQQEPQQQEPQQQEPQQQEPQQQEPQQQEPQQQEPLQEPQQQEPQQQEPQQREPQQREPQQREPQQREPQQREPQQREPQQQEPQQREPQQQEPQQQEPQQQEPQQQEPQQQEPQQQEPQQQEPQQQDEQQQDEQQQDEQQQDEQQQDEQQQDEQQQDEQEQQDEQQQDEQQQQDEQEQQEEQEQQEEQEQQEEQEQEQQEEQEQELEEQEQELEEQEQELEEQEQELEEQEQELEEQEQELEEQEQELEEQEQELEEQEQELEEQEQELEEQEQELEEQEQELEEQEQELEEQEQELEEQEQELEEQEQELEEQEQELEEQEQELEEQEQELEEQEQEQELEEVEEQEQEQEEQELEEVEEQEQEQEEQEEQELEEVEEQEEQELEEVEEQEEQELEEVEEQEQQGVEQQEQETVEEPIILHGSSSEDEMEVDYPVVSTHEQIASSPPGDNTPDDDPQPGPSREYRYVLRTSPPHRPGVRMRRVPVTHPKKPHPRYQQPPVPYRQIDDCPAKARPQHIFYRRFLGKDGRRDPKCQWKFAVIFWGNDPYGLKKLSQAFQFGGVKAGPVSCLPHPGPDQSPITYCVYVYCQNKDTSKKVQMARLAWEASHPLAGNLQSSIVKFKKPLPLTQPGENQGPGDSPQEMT

T1 sequence (P51452 whole entry): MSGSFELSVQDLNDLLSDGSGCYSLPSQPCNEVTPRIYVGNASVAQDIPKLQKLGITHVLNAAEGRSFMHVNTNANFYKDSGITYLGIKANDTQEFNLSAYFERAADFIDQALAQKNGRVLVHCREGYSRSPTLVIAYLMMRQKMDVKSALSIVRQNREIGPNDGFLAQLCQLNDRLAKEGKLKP

Cn1nc(-c2ccccn2)nc2c(=O)n(C)c(=O)nc1-2
active: IC50 [2] 10200 nM | AC50 (Protein RecA [3]) 143 nM | AC50 [4] 503 nM | AC50 (Protein RecA [6]) 47 nM | AC50 [7] 284 nM | AC50 [8] 3790 nM | AC50 [9] 3150 nM | AC50 [10] 1490 nM | AC50 [11] 2420 nM
inactive: IC50 [1] < 1230 nM | IC50 [5] 21000 nM

CCCCCCCCCCn1c2c(c(=N)c3c1CCC3)CCC2
active: AC50 [14] 3400 nM | AC50 [15] 1800 nM
inconclusive: EC50 (BJ [12]) 3260 nM | EC50 (BJ [13]) 2460 nM

COc1ccc(NS(=O)(=O)c2ccc3c(c2)[C@H]2C=CC[C@H]2[C@@H](c2ccc(C(=O)O)cc2)N3)cc1
active: AC50 (ORF 73) 71900 nM
